Test results taken from a melting point compilation (Tetko et al.; mined from patent text by program, amines drawn as free bases though some values may be those of a salt).

SMILES	melting point [°C]
O=c1[nH]cnc2cc(O)c(O)cc12	> 250
Cn1c(=O)c(=O)[nH]c2cccnc21	238 to 239
COC1OC(CO)C(O)C(OC(C)=O)C1Cl (stereo not given)	105 to 106
CCNc1ccc(CN2OCC(C)(C)C2=O)c(Cl)c1	135 to 138
Cc1nn(-c2c(Cl)cc(C(F)(F)F)cc2Cl)nc1COS(C)(=O)=O	126 to 128
CCn1ncc2c(Cl)c3cc(S(C)(=O)=O)ccc3nc21	158 to 160
COc1c(C(=O)O)[nH]c2cccc(C)c12	136
Cc1[nH]c(C=O)c(C)c1C(=O)NCCC1CCCN1C (stereo not given)	143 to 149
CC(C)(C)NCC(O)COc1ccc(N)cc1 (stereo not given)	125 to 127
CCc1nnc2c(O)nc3cc(Cl)ccc3n12	> 300
Cn1cc(C(N)=O)c([N+](=O)[O-])n1	190 to 192
CCCCN(CCCC)c1ccc(C=Cc2ccc(C=CC3=C(C#N)C(=C(C#N)C#N)OC3(C)C(F)(F)F)s2)c(OC)c1 (stereo not given)	191 to 193
CCC1(CC)O[C@@H](Oc2ccc3c(O)c(NC(=O)C(C)C)c(=O)oc3c2C)[C@H](O)[C@H](OC(=O)C2(C)C=CCN2)[C@H]1OC (stereo not given in full)	140 to 142
CCOC(=O)c1cc2c(s1)-n1c(C)nnc1CN=C2c1ccccc1Cl	148 to 150
CC(=O)NNc1ccc([N+](=O)[O-])cc1	207 to 209
CCOC(=O)C(=CNc1ncnc2ccc(CC)cc12)C(=O)OCC	104 to 106
CN(C)c1ccc2nc(N)c(C#N)c(O)c2c1	360
OCc1cc(I)ccc1O	105 to 110
Nc1nc(Cl)c(NC=O)c(N[C@H]2C=C[C@@H](CO)C2)n1	174 to 176
CC=Cc1nc2c(C(F)(F)F)cccc2c(O)c1C(=O)Nc1nccs1	265
CC(C)Cc1ccc2scc(C(C)N(O)C(N)=O)c2c1 (stereo not given)	151 to 153
CCCCCCCCCCc1ccc(C[N+](=O)[O-])cc1	50
CCOC(=O)c1cn2c3c(cc(CN4CCOCC4)cc3c1=O)OCC2	216 to 218
O=[N+]([O-])C=C1NCCN1Cc1ccc(F)nc1	139 to 142
Nc1cc2cccc(F)c2oc1=O	173 to 174
COC(=O)N=C(NC(=O)OC)Nn1cccc1C(=O)OC	160
CCCNC(=NC#N)Nc1cccnc1	164 to 165
Cc1c(=O)o[n-][n+]1CCSC12CC3CC(CC(C3)C1)C2	92 to 93
C#CCCCCCCCOc1cccc(C(N)=O)c1	82 to 83
OCc1cc2c(F)ccc(Cl)c2s1	63 to 64

Results, then the molecule that gave them:

melting point [°C]	SMILES
201	COc1ccc(-c2nn3c(S(C)=O)nnc3c3ccccc23)cc1 (stereo not given)
137 to 138	Cc1nc(C(F)(F)F)ccc1C(=O)C1=C(Cl)C2CCC(C2)C1=O (stereo not given)
195 to 201	CC(C)(C)NC(=O)Nc1nc2nc(NC3CCOCC3)ncc2cc1Oc1ccc(F)cc1F
121 to 122	Cc1ncccc1Cn1nnnc1-c1cccc(Cl)c1Cl
119 to 120	OCC1Oc2ccccc2OC1CO (stereo not given)
152 to 154	Cc1ccc(-c2nnc(N3CCC(CO)CC3)nc2-c2ccc(C)cc2)cc1
127 to 128	Cc1cccc(-c2[nH]c(C3CC3)nc2-c2cccc(-c3ccc(C(=O)NC4CCOCC4)cc3)c2)n1
221 to 223	C1=C(CC2=NCCN2)CCc2ccccc21
178	CN(C(=O)c1ccccc1NC(=O)N[C@@H](Cc1ccc(NC(=O)c2c(Cl)cccc2Cl)cc1)C(=O)O)c1ccccc1
234 to 235	O=c1ccc2cc([N+](=O)[O-])cc(-c3cccc4ccccc34)c2[nH]1
66 to 67	CCCCC(=O)NCc1ccc(C#CCCOCCCCCCNCc2ccccc2)cc1
123	Cc1cc(-c2cc(C(F)F)nn2-c2ccc(S(C)(=O)=O)c(F)c2)ccc1-c1nccs1
196	CNC1(Cc2ccccc2)C(=O)Nc2ccc(Cl)cc21 (stereo not given)
162	N#Cc1ccc(Nn2ccnc2)cc1
216	CCOC(=O)c1cn(C)c2nc3c(F)c(N4CCNC(c5ccccc5)C4)c(F)cc3cc2c1=O (racemic)
93 to 95	Cc1nc(NCC(C)C)nc(N2CCc3ccccc3C2C)c1C (stereo not given)
185 to 186	OC(c1ccccc1)(c1ccccc1-c1ccccc1)C1CCNCC1 (stereo not given)
121 to 122	Cc1nc(-c2ccc(I)cc2)no1
205 to 206	CCOC(=O)C1=C(C(C)C)Nc2n[nH]cc2C1c1ccccc1[N+](=O)[O-] (stereo not given)
171 to 173	CC(COc1ccc(C(N)=O)c(O)c1)NCC(O)c1ccccc1 (stereo not given)
176	O=C(OCc1ccccc1)c1ccc2cc(-c3ccc(CCCO)c(C45CC6CC(CC(C6)C4)C5)c3)ccc2c1
97 to 98.5	CCCOc1ccccc1-c1nc(O)cc(CC)n1
101 to 102	Cc1ccc(N2CCN(CCCc3[nH]nc4c3CCC4)CC2)cc1

melting point [°C]	SMILES
115 to 118	CCCCOC(=O)Nc1nc(C(=NOC2CCCC2)C(=O)OC)ns1
90 to 91	C1CCCCN2CCOCCOCCN(CCC1)CCOCCOCC2
> 250	CC(=O)Nc1ccc2c(c1)C(=O)CC1(CCN(Cc3ccc([N+](=O)[O-])cc3)CC1)O2
112 to 114	N#Cc1c(N)cccc1N1CCCC1
175	Cc1ccc(C(C)(C)C)c(SC2=C(O)CC(CCc3ccccc3)(c3ccc(OCCN4CCNCC4)cc3)OC2=O)c1 (stereo not given)
161 to 162	O=C(O)COc1ccc(SCc2cc(-c3ccccc3Cl)on2)c2c1CCC2
124	CC(=O)OC1C(C)OC(Sc2ccccc2)C(OCc2ccccc2)C1OC(C)=O (stereo not given)
120 to 122	CCc1[nH]n(C2CCCC2)c2nc(Cc3ccccn3)nc(=O)c1-2
174 to 176	CNC(=O)c1cc2c(Oc3ccc(-c4noc(C(F)(F)F)n4)cc3)cncc2s1
121 to 123	c1ccc(C(=C(c2ccccc2)P(C2CCCCC2)C2CCCCC2)c2ccccc2)cc1
64 to 70	CC1CC2=C(CCC(O)C2)C2CCC3(C)C(CO)CCC3C12 (stereo not given)
87 to 89	CCOC(=O)C1CCC(=O)C(Sc2ccc(C)cc2)C1 (stereo not given)
64 to 66	NS(=O)(=O)c1cc(C(=O)OCC(=O)N2CCC[C@@H]2CO[N+](=O)[O-])c(NCc2ccco2)cc1Cl
168	CC(C)(C)OC(=O)CCc1cccc(-c2nc(=O)c3ccc(Cl)cc3s2)n1
147 to 148	O=C(c1cccnc1)c1cc2cc(Br)ccc2s1
57 to 58	CCc1ccc(-c2nc(COc3ccc(CCCn4ccnc4)cc3)co2)s1
111 to 113	COCCOC[C@H](CC1(C(=O)O)CCCC1)C(=O)Oc1ccc2c(c1)CCC2
232 to 233	Cc1c(-c2ccccc2)sc2c(Cl)c(Cl)c(OCC(=O)O)cc12
215 to 218	CC(C)(C)c1csc(NC(=O)c2ccn3c(=O)c(/C=C/C(=O)O)c(N4CCC(O)CC4)nc3c2)n1
156 to 157	COc1ccc(CCNC(=O)CCCCC(=O)NCCc2cccc3ccccc23)cc1OC
84 to 86	O=C(CCN1CCN(c2ccc3c(c2)OCO3)CC1)c1csc2ccc(F)cc12
97 to 99	CC1CCc2ccc(OCC(O)CNC3CCCCC3)cc2O1 (stereo not given)
